# What was measured:
# Purified diglycosidase = experiment: Influence of free glucose on diglycosidase activity; assay type: biochemical, Penicillium multicolor IAM7153; settings: isolated aglycon amount at glucose 0% and 0.5 hour = 100%
# Procedure: Purified diglycosidase was diluted with 20 mM acetate buffer of pH 4.0 to prepare a 0.75 AU/mL enzyme solution.
# With a glucose solution was mixed 10 μL of each 2 mM substrate solution described in Example 2, and 20 mM acetate buffer of pH 4.0 was added thereto to be a liquid volume of 210 μL. Further, 40 μL of the enzyme solution was added and reaction was carried out at a final liquid volume of 250 μL. Adjustment of the glucose solution to be added allows glucose to exist in the reaction mixture in the range of 0 to 20%. The reaction was carried out at 55° C. and the existence of isoflavone glycosides and aglycon isoflavones was detected by HLPC at 0, 0.5, 1, and 3 hours of the reaction.
# Crude diglycosidase = experiment: Examination of pH in the conversion into isoflavone aglycons by diglycosidase using soybean materials; assay type: biochemical, Penicillium multicolor IAM7153; settings: for Decomposition efficiency of glycitin family in roasted soy flour / Decomposition efficiency of glycitin family in soymilk: 55° C.
# How it was run: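 Suspensions of 50 mg roasted soy flour, soymilk, defatted soybean or concentrated soy protein were brought to pH 2 to 11 with HCl or NaOH and reacted at 55° C with crude diglycosidase (enzyme solution at 1.88 AU/mL, same pH). Ethanol-stopped samples at 0, 1, 3 and 6 h were analysed by HPLC.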
smiles,measurement,setting,value
"COc1cc2c(=O)c(-c3ccc(O)cc3)coc2cc1O[C@@H]1O[C@H](COC(C)=O)[C@@H](O)[C@H](O)[C@H]1O [acetylglycitin, 6″-O-acetylglycitin]",Isolation of isoflavone aglycons by diglycosidase in presence of glucose,Purified diglycosidase; Glucose concentration 0 %,100%
same,Isolation of isoflavone aglycons by diglycosidase in presence of glucose,Purified diglycosidase; Glucose concentration 2 %,100.9%
same,Isolation of isoflavone aglycons by diglycosidase in presence of glucose,Purified diglycosidase; Glucose concentration 4 %,100.9%
same,Isolation of isoflavone aglycons by diglycosidase in presence of glucose,Purified diglycosidase; Glucose concentration 8 %,100.9%
same,Isolation of isoflavone aglycons by diglycosidase in presence of glucose,Purified diglycosidase; Glucose concentration 20 %,100.9%
same,Decomposition efficiency of glycitin family in concentrated soybean protein,"Crude diglycosidase; pH1.6, heat treatment of enzyme: no, reaction time 0 h",35.9%
same,Decomposition efficiency of glycitin family in concentrated soybean protein,"Crude diglycosidase; pH1.6, heat treatment of enzyme: no, reaction time 1 h",35.1%
same,Decomposition efficiency of glycitin family in concentrated soybean protein,"Crude diglycosidase; pH1.6, heat treatment of enzyme: no, reaction time 3 h",33.5%
same,Decomposition efficiency of glycitin family in concentrated soybean protein,"Crude diglycosidase; pH1.6, heat treatment of enzyme: no, reaction time 6 h",31.8%
same,Decomposition efficiency of glycitin family in concentrated soybean protein,"Crude diglycosidase; pH1.6, heat treatment of enzyme: yes, reaction time 6 h",30.9%
same,Decomposition efficiency of glycitin family in roasted soy flour,"Crude diglycosidase; pH2, heat treatment of enzyme no, reaction time 0 h",35.3
same,Decomposition efficiency of glycitin family in roasted soy flour,"Crude diglycosidase; pH2, heat treatment of enzyme no, reaction time 1 h",34.0
same,Decomposition efficiency of glycitin family in roasted soy flour,"Crude diglycosidase; pH2, heat treatment of enzyme no, reaction time 3 h",34.2
same,Decomposition efficiency of glycitin family in roasted soy flour,"Crude diglycosidase; pH2, heat treatment of enzyme no, reaction time 6 h",35.5
same,Decomposition efficiency of glycitin family in roasted soy flour,"Crude diglycosidase; pH2, heat treatment of enzyme yes, reaction time 6 h",35.2
same,Decomposition efficiency of glycitin family in soymilk,"Crude diglycosidase; pH2.3, heat treatment of enzyme no, reaction time 0 h",not detected
same,Decomposition efficiency of glycitin family in soymilk,"Crude diglycosidase; pH2.3, heat treatment of enzyme no, reaction time 1 h",not detected
same,Decomposition efficiency of glycitin family in soymilk,"Crude diglycosidase; pH2.3, heat treatment of enzyme no, reaction time 3 h",not detected
same,Decomposition efficiency of glycitin family in soymilk,"Crude diglycosidase; pH2.3, heat treatment of enzyme no, reaction time 6 h",not detected
same,Decomposition efficiency of glycitin family in soymilk,"Crude diglycosidase; pH2.3, heat treatment of enzyme yes, reaction time 6 h",not detected
same,Decomposition efficiency of glycitin family in defatted soybean,"Crude diglycosidase; pH2.6, heat treatment of enzyme: no, reaction time 0 h",not detected
same,Decomposition efficiency of glycitin family in defatted soybean,"Crude diglycosidase; pH2.6, heat treatment of enzyme: no, reaction time 1 h",not detected
same,Decomposition efficiency of glycitin family in defatted soybean,"Crude diglycosidase; pH2.6, heat treatment of enzyme: no, reaction time 3 h",not detected
same,Decomposition efficiency of glycitin family in defatted soybean,"Crude diglycosidase; pH2.6, heat treatment of enzyme: no, reaction time 6 h",not detected
same,Decomposition efficiency of glycitin family in defatted soybean,"Crude diglycosidase; pH2.6, heat treatment of enzyme: yes, reaction time 6 h",not detected
same,Decomposition efficiency of glycitin family in concentrated soybean protein,"Crude diglycosidase; pH2.7, heat treatment of enzyme: no, reaction time 0 h",35.9%
same,Decomposition efficiency of glycitin family in concentrated soybean protein,"Crude diglycosidase; pH2.7, heat treatment of enzyme: no, reaction time 1 h",36.6%
same,Decomposition efficiency of glycitin family in concentrated soybean protein,"Crude diglycosidase; pH2.7, heat treatment of enzyme: no, reaction time 3 h",36.5%
same,Decomposition efficiency of glycitin family in concentrated soybean protein,"Crude diglycosidase; pH2.7, heat treatment of enzyme: no, reaction time 6 h",36.6%
same,Decomposition efficiency of glycitin family in concentrated soybean protein,"Crude diglycosidase; pH2.7, heat treatment of enzyme: yes, reaction time 6 h",35.4%
same,Decomposition efficiency of glycitin family in roasted soy flour,"Crude diglycosidase; pH3, heat treatment of enzyme no, reaction time 0 h",35.3
same,Decomposition efficiency of glycitin family in roasted soy flour,"Crude diglycosidase; pH3, heat treatment of enzyme no, reaction time 1 h",38.7
same,Decomposition efficiency of glycitin family in roasted soy flour,"Crude diglycosidase; pH3, heat treatment of enzyme no, reaction time 3 h",30.8
same,Decomposition efficiency of glycitin family in roasted soy flour,"Crude diglycosidase; pH3, heat treatment of enzyme no, reaction time 6 h",31.7
same,Decomposition efficiency of glycitin family in roasted soy flour,"Crude diglycosidase; pH3, heat treatment of enzyme yes, reaction time 6 h",35.6
same,Decomposition efficiency of glycitin family in defatted soybean,"Crude diglycosidase; pH3.4, heat treatment of enzyme: no, reaction time 0 h",not detected
same,Decomposition efficiency of glycitin family in defatted soybean,"Crude diglycosidase; pH3.4, heat treatment of enzyme: no, reaction time 1 h",not detected
same,Decomposition efficiency of glycitin family in defatted soybean,"Crude diglycosidase; pH3.4, heat treatment of enzyme: no, reaction time 3 h",not detected
same,Decomposition efficiency of glycitin family in defatted soybean,"Crude diglycosidase; pH3.4, heat treatment of enzyme: no, reaction time 6 h",not detected
same,Decomposition efficiency of glycitin family in defatted soybean,"Crude diglycosidase; pH3.4, heat treatment of enzyme: yes, reaction time 6 h",not detected
same,Decomposition efficiency of glycitin family in soymilk,"Crude diglycosidase; pH3.5, heat treatment of enzyme no, reaction time 0 h",not detected
same,Decomposition efficiency of glycitin family in soymilk,"Crude diglycosidase; pH3.5, heat treatment of enzyme no, reaction time 1 h",not detected
same,Decomposition efficiency of glycitin family in soymilk,"Crude diglycosidase; pH3.5, heat treatment of enzyme no, reaction time 3 h",not detected
same,Decomposition efficiency of glycitin family in soymilk,"Crude diglycosidase; pH3.5, heat treatment of enzyme no, reaction time 6 h",not detected
same,Decomposition efficiency of glycitin family in soymilk,"Crude diglycosidase; pH3.5, heat treatment of enzyme yes, reaction time 6 h",not detected
same,Decomposition efficiency of glycitin family in concentrated soybean protein,"Crude diglycosidase; pH3.7, heat treatment of enzyme: no, reaction time 0 h",36.1%
same,Decomposition efficiency of glycitin family in concentrated soybean protein,"Crude diglycosidase; pH3.7, heat treatment of enzyme: no, reaction time 1 h",32.9%
same,Decomposition efficiency of glycitin family in concentrated soybean protein,"Crude diglycosidase; pH3.7, heat treatment of enzyme: no, reaction time 3 h",26.1%
same,Decomposition efficiency of glycitin family in concentrated soybean protein,"Crude diglycosidase; pH3.7, heat treatment of enzyme: no, reaction time 6 h",22.1%
same,Decomposition efficiency of glycitin family in concentrated soybean protein,"Crude diglycosidase; pH3.7, heat treatment of enzyme: yes, reaction time 6 h",35.9%
same,Decomposition efficiency of glycitin family in roasted soy flour,"Crude diglycosidase; pH4, heat treatment of enzyme no, reaction time 0 h",34.8
same,Decomposition efficiency of glycitin family in roasted soy flour,"Crude diglycosidase; pH4, heat treatment of enzyme no, reaction time 1 h",18.8
same,Decomposition efficiency of glycitin family in roasted soy flour,"Crude diglycosidase; pH4, heat treatment of enzyme no, reaction time 3 h",8.2
same,Decomposition efficiency of glycitin family in roasted soy flour,"Crude diglycosidase; pH4, heat treatment of enzyme no, reaction time 6 h",not detected
same,Decomposition efficiency of glycitin family in roasted soy flour,"Crude diglycosidase; pH4, heat treatment of enzyme yes, reaction time 6 h",35.9
same,Decomposition efficiency of glycitin family in soymilk,"Crude diglycosidase; pH4.8, heat treatment of enzyme no, reaction time 0 h",not detected
same,Decomposition efficiency of glycitin family in soymilk,"Crude diglycosidase; pH4.8, heat treatment of enzyme no, reaction time 1 h",not detected
same,Decomposition efficiency of glycitin family in soymilk,"Crude diglycosidase; pH4.8, heat treatment of enzyme no, reaction time 3 h",not detected
same,Decomposition efficiency of glycitin family in soymilk,"Crude diglycosidase; pH4.8, heat treatment of enzyme no, reaction time 6 h",not detected
same,Decomposition efficiency of glycitin family in soymilk,"Crude diglycosidase; pH4.8, heat treatment of enzyme yes, reaction time 6 h",not detected
same,Decomposition efficiency of glycitin family in defatted soybean,"Crude diglycosidase; pH4.8, heat treatment of enzyme: no, reaction time 0 h",not detected
same,Decomposition efficiency of glycitin family in defatted soybean,"Crude diglycosidase; pH4.8, heat treatment of enzyme: no, reaction time 1 h",not detected

# Source: US7118895B2, “Process for producing aglycon by using diglycosidase and flavor-improved food containing the aglycon and converting agent to be used in the process” (Amano Enzyme Inc., priority 2000, dated 2006)
